Assay results: patent publication US20010014748A1, “HIV INTEGRASE INHIBITORS” (priority 1998, published 2001)

molecular target: T1, HIV integrase (Human immunodeficiency virus type 1 group M subtype B, UniProt P04585); assay: HIV integrase assay: strand transfer catalyzed by recombinant integrase; format: biochemical; conditions: strand transfer activity of recombinant integrase
T1 construct: strand transfer reaction catalyzed by the recombinant integrase in vitro
Description: HIV Integrase Assay: Strand Transfer Catalyzed by Recombinant Integrase
Assays for the strand transfer activity of integrase were conducted according to Wolfe, A. L. et al., J. Virol. 70, 1424 (1996, hereby incorporated by reference for these purposes. Data for representative compounds of the present invention follow: […]

Row | SMILES | IC50
1 | CC(=O)OC1C(O)C2=C(CCC3C2(C)CC(OC(=O)CCCCCCCCCCCCCCCO)C(OS(=O)(=O)O)C3(C)C)C2=CCC(C(C)CCC3(C(C)(C)O)CO3)C21C (centres unmarked) [Compound A1] | 14 µM
2 | C=C(CCC(C)C1CCC2C3=C(C(O)C(OC(C)=O)C21C)C1(C)CC(O)C(OS(=O)(=O)O)C(C)(C)C1CC3)C(C)C (centres unmarked) [Compound A3] | 15 µM
3 | C=C(CCC(C)C1CC=C2C3=C(C(O)C(OC(C)=O)C21C)C1(C)CC(O)C(OC(=O)CCC(=O)O)C(C)(C)C1CC3)C(C)C (centres unmarked) [Compound J] | 16 µM
4 | C=C(CCC(C)C1CC=C2C3=C(C(O)C(OC(C)=O)C21C)C1(C)CC(OC(=O)CCC(=O)O)C(O)C(C)(C)C1CC3)C(C)C (centres unmarked) [Compound K] | 68 µM
5 | C=C(CC[C@@H](C)[C@H]1CC=C2C3=C([C@@H](O)[C@H](OC(C)=O)C21C)C1(C)C[C@@H](OC(=O)CN)[C@H](OC(=O)CN)C(C)(C)[C@@H]1CC3)C(C)C (some centres unmarked) [Compound X] | 5 µM
